The record followed here is patent US11236041B2, “Type-G crystal form of fenolamine, preparation method, composition and use thereof” (INSTITUTE OF MATARIA MEDICA, CHINESE ACADEMY OF MEDICAL …, priority 2017, dated 2022).

A short description of the data set: Stability of solid of type-G fenolamine crystal form (influencing factor experiment). The conditions noted are these: open watch glass; 60° C., 40° C., and 25° C., relative humidity 90%±5%, illumination 4500 lx±500 lx; 10 days, sampled Days 0, 5, 10; powder X-ray diffraction and gas chromatography. The class given is physicochemical. On the procedure:
Type-G fenolamine crystal form samples were placed in open clean watch glasses, and kept under conditions of a high temperature of 60° C., a high temperature of 40° C., and 25° C., a relative humidity of 90%±5%, and illumination at 4500 lx±500 lx for 10 days, and samples were taken on Days 0, 5, and 10. Powder X-ray diffraction (with a resultant pattern consistent to that in FIG. 1) and gas chromatography means were used for analysis. […] All of the products from Example 1 were subjected to this test and achieved the same effect.

In the case of `COc1ccc(OC)c(/C(=C\c2ccc(O)c(OC)c2)C(=O)NCCc2ccc(O)cc2)c1` [type-G fenolamine crystal form, trans-2-(2,5-dimethoxyphenyl)-3-(4-hydroxy-3-methoxyphenyl)-N-(4-hydroxyphenylethyl)-acrylamide], the “stability of the crystal form under conditions of high temperature, high humidity and light illumination” value was “stable”.
